Converted amounts (≈) assume the structure as drawn.
Key:
Test in all cases: Agar dilution test according to Lorian (antibacterial activity)
Format in all cases: cell-based
Staph. aureus (SG 511) = tested on: Staph. aureus (SG 511)
Protocol: (§1) Die antibakterielle Wirksamkeit der erfindungsgemäßen Verbindungen wurde im Agar-Verdünnungstest nach Lorian (Antibiotics in Laboratory Medicine, Williams & Wilkins, Baltimore/London, 1980) bestimmt. Dabei wurden die Präparate in einer geometrischen Verdünnungsreihe mit dem Faktor 2 in Müller Hinton Agar verdünnt. Eine Petrischale enthielt nur Müller Hinton Agar und diente zur Kontrolle des Bakterienwachstums. Die Petrischalen wurden dann mit einem Denley-Multipoint-Inokulator, welcher 0,6 ul einer 1 : 100 verdünnten 18-Stunden-Kultur der Testbakterien übertrug, mit den entsprechenden Testbakterien beimpft. Nach 16 bis 18 Stunden Inkubation bei 37^. C wurden die Petrischalen makroskopisch auf Bakterienwachstum untersucht.
(§2) Die niedrigste Konzentration der erfindungsgemäßen Verbindungen, welche das Bakterienwachstum noch vollständig verhinderte, wurde als MIC (Minimum Inhibitory Concentration) angenommen.
(§3) In Tabelle 4 ist die Wirkung (Angabe des MIC in µg/ml) von verschiedenen erfindungsgemäßen Verbindungen gegen folgende Bakterien aufgeführt: • Staph. aureus (SG 511), Staph. aureus (285), Staph. aureus (503), Strept. pyogenes (308 A), Strept pyogenes (77 A), Strept. faecium (D).

Staph. aureus (503) = tested on: Staph. aureus (503)
Protocol: as §1, §2, §3

Strept. pyogenes (308 A) = tested on: Strept. pyogenes (308 A)
Protocol: as §1, §2, §3

Staph. aureus (285) = tested on: Staph. aureus (285)
Protocol: as §1, §2, §3

Strept. faecium (D) = tested on: Strept. faecium (D)
Protocol: as §1, §2, §3

Strept. pyogenes (77 A) = tested on: Strept. pyogenes (77 A)
Protocol: as §1, §2, §3

[1] = Müller Hinton Agar, 16 to 18 h at 37 C, lowest concentration fully preventing growth

| Compound | MIC (Staph. aureus (SG 511); [1]) | MIC (Staph. aureus (503); [1]) | MIC (Strept. pyogenes (308 A); [1]) | MIC (Staph. aureus (285); [1]) | MIC (Strept. faecium (D); [1]) | MIC (Strept. pyogenes (77 A); [1]) | MIC (Staph. aureus (SG 511); Staphylococcus aureus) | MIC (Staph. aureus (503); Staphylococcus aureus) | MIC (Staph. aureus (285); Staphylococcus aureus) | MIC (Strept. faecium (D); Enterococcus faecium) | MIC (Strept. pyogenes (308 A); Streptococcus pyogenes) | MIC (Strept. pyogenes (77 A); Streptococcus pyogenes) |
| --- | --- | --- | --- | --- | --- | --- | --- | --- | --- | --- | --- | --- |
| COC1CC(CC2CCC(C)C(C(C)C(=O)[O-])O2)OC2(OC(C)(C3CCC(C)(C4OC(C5OC(O)(CO)C(C)CC5C)CC4C)O3)CC2C)C1C.[K+] (stereo not drawn) [Beispiel 34] | 0,025 µg/ml | < 0,002 µg/ml | < 0,002 µg/ml | 0,025 µg/ml | 0,098 µg/ml | < 0,002 µg/ml |  |  |  |  |  |  |
| COC1CC(CC2CCC(C)C(C(C)C(=O)O)O2)OC2(OC(C)(C3CCC(C)(C4OC(C5OC(O)(COC(=O)c6c(Br)c(Br)c(Br)c(Br)c6C(=O)O)C(C)CC5C)CC4C)O3)CC2C)C1C (stereo not drawn) [Beispiel 29] |  |  |  |  |  |  | 1.56 µg/mL (≈ 1.31 µM) | 1.56 µg/mL (≈ 1.31 µM) | 3.13 µg/mL (≈ 2.63 µM) | 3.13 µg/mL (≈ 2.63 µM) |  |  |
| COC1CC(CC2CCC(C)C(C(C)C(=O)O)O2)OC2(OC(C)(C3CCC(C)(C4OC(C5OC(O)(COC(=O)C(C)C)C(C)CC5C)CC4C)O3)CC2C)C1C (stereo not drawn) [Beispiel 27] |  |  |  |  |  |  | 0.39 µg/mL (≈ 0.491 µM) | 0.19 µg/mL (≈ 0.239 µM) | 0.39 µg/mL (≈ 0.491 µM) | > 100 µg/mL |  |  |
| COC1CC(CC2CCC(C)C(C(C)C(=O)O)O2)OC2(OC(C)(C3CCC(C)(C4OC(C5OC(O)(COC(=O)c6ccccc6C(=O)O)C(C)CC5C)CC4C)O3)CC2C)C1C (stereo not drawn) [Beispiel 31] |  |  |  |  |  |  | 0.78 µg/mL (≈ 0.893 µM) | 0.78 µg/mL (≈ 0.893 µM) | 0.78 µg/mL (≈ 0.893 µM) |  |  |  |
| COC1CC(CC2CCC(C)C(C(C)C(=O)O)O2)OC2(OC(C)(C3CCC(C)(C4OC(C5OC(O)(COC(=O)c6ccco6)C(C)CC5C)CC4C)O3)CC2C)C1C (stereo not drawn) [Beispiel 8] | 0,195 µg/ml | 0,195 µg/ml | 0,013 µg/ml | 0,391 µg/ml | 0,391 µg/ml | 0,013 µg/ml |  |  |  |  |  |  |
| COC1CC(CC2CCC(C)C(C(C)C(=O)[O-])O2)OC2(OC(C)(C3CCC(C)(C4OC(C5OC(O)(COC(=O)CCC(=O)[O-])C(C)CC5C)CC4C)O3)CC2C)C1C.[Mg+2] (stereo not drawn) [Beispiel 37] | 0,098 µg/ml | 0,049 µg/ml | 0,007 µg/ml | 0,098 µg/ml | 0,098 µg/ml | 0,007 µg/ml |  |  |  |  |  |  |
| COC1CC(CC2CCC(C)C(C(C)C(=O)O)O2)OC2(OC(C)(C3CCC(C)(C4OC(C5OC(O)(COC(=O)c6ccccc6)C(C)CC5C)CC4C)O3)CC2C)C1C (stereo not drawn) [Beispiel 6] | 0,098 µg/ml | 0,098 µg/ml | 0,013 µg/ml | 0,391 µg/ml | 0,391 µg/ml | 0,013 µg/ml |  |  |  |  |  |  |
| COC1CC(CC2CCC(C)C(C(C)C(=O)O)O2)OC2(OC(C)(C3CCC(C)(C4OC(C5OC(O)(COC(=O)c6cccs6)C(C)CC5C)CC4C)O3)CC2C)C1C (stereo not drawn) [Beispiel 9] | 0,049 µg/ml | 0,049 µg/ml | 0,007 µg/ml | 0,195 µg/ml | 0,195 µg/ml | 0,007 µg/ml |  |  |  |  |  |  |
| CCCCCCCCCCCC(=O)OCC1(O)OC(C2CC(C)C(C3(C)CCC(C4(C)CC(C)C5(OC(CC6CCC(C)C(C(C)C(=O)O)O6)CC(OC)C5C)O4)O3)O2)C(C)CC1C (stereo not drawn) [Beispiel 10] | 6,25 µg/ml | 3,13 µg/ml | 0,781 µg/ml | 6,25 µg/ml | 6,25 µg/ml | 0,781 µg/ml |  |  |  |  |  |  |
| CCCCCCCCCCCCCCCCCCCCCC(=O)OCC1(O)OC(C2CC(C)C(C3(C)CCC(C4(C)CC(C)C5(OC(CC6CCC(C)C(C(C)C(=O)O)O6)CC(OC)C5C)O4)O3)O2)C(C)CC1C (stereo not drawn) [Beispiel 30] |  |  |  |  |  |  | 100 µg/mL (≈ 95.5 µM) | 50 µg/mL (≈ 47.7 µM) | 100 µg/mL (≈ 95.5 µM) | 100 µg/mL (≈ 95.5 µM) | 25 µg/mL (≈ 23.9 µM) | 25 µg/mL (≈ 23.9 µM) |
| COC1CC(CC2CCC(C)C(C(C)C(=O)O)O2)OC2(OC(C)(C3CCC(C)(C4OC(C5OC(O)(COC(=O)COc6ccccc6)C(C)CC5C)CC4C)O3)CC2C)C1C (stereo not drawn) [Beispiel 3] | 0,391 µg/ml | 0,391 µg/ml | 0,049 µg/ml | 0,391 µg/ml | 0,781 µg/ml | 0,049 µg/ml |  |  |  |  |  |  |
| COC1CC(CC2CCC(C)C(C(C)C(=O)O)O2)OC2(OC(C)(C3CCC(C)(C4OC(C5OC(O)(COC(=O)CCOc6ccccc6)C(C)CC5C)CC4C)O3)CC2C)C1C (stereo not drawn) [Beispiel 4] | 0,78 µg/ml | 0,78 µg/ml | 0,098 µg/ml | 1,56 µg/ml | 1,56 µg/ml | 0,098 µg/ml |  |  |  |  |  |  |
| COC1CC(CC2CCC(C)C(C(C)C(=O)O)O2)OC2(OC(C)(C3CCC(C)(C4OC(C5OC(O)(COC(=O)Nc6ccccc6)C(C)CC5C)CC4C)O3)CC2C)C1C (stereo not drawn) [Beispiel 12] | 0,781 µg/ml | 0,78 µg/ml | 0,098 µg/ml | 3,13 µg/ml | 1,56 µg/ml | 0,098 µg/ml |  |  |  |  |  |  |
| CCOC1(CO)OC(C2CC(C)C(C3(C)CCC(C4(C)CC(C)C5(OC(CC6CCC(C)C(C(C)C(=O)O)O6)CC(OC)C5C)O4)O3)O2)C(C)CC1C (stereo not drawn) [Beispiel 17] | 1,56 µg/ml | 0,78 µg/ml | 0,098 µg/ml | 1,56 µg/ml | 1,56 µg/ml | 0,098 µg/ml |  |  |  |  |  |  |
| COC1CC(CC2CCC(C)C(C(C)C(=O)O)O2)OC2(OC(C)(C3CCC(C)(C4OC(C5OC(O)(COC(=O)Cc6ccccc6)C(C)CC5C)CC4C)O3)CC2C)C1C (stereo not drawn) [Beispiel 7] | 0,195 µg/ml | 0,195 µg/ml | 0,004 µg/ml | 0,391 µg/ml | 0,391 µg/ml | 0,004 µg/ml |  |  |  |  |  |  |
| COC1CC(CC2CCC(C)C(C(C)C(=O)O)O2)OC2(OC(C)(C3CCC(C)(C4OC(C5OC(O)(COC(=O)NCc6ccccc6)C(C)CC5C)CC4C)O3)CC2C)C1C (stereo not drawn) [Beispiel 13] | 3,13 µg/ml | 3,13 µg/ml | 0,78 µg/ml | 6,25 µg/ml | 12,5 µg/ml | 0,39 µg/ml |  |  |  |  |  |  |
| COC1CC(CC2CCC(C)C(C(C)C(=O)O)O2)OC2(OC(C)(C3CCC(C)(C4OC(C5OC(O)(COS(=O)(=O)O)C(C)CC5C)CC4C)O3)CC2C)C1C (stereo not drawn) [Beispiel 15] | 1,56 µg/ml | 0,78 µg/ml | 1,56 µg/ml | 1,56 µg/ml | 3,13 µg/ml | 0,78 µg/ml |  |  |  |  |  |  |
| COC1CC(CC2CCC(C)C(C(C)C(=O)O)O2)OC2(OC(C)(C3CCC(C)(C4OC(C5OC(O)(COC(=O)C=CC(=O)O)C(C)CC5C)CC4C)O3)CC2C)C1C (stereo not drawn) [Beispiel 23] |  |  |  |  |  |  |  |  |  | 0.39 µg/mL (≈ 0.474 µM) |  |  |
| COC1CC(CC2CCC(C)C(C(C)C(=O)O)O2)OC2(OC(C)(C3CCC(C)(C4OC(C5OC(COS(C)(=O)=O)(OC)C(C)CC5C)CC4C)O3)CC2C)C1C (stereo not drawn) [Beispiel 20] |  |  |  |  |  |  | 25 µg/mL (≈ 30.6 µM) | 12.5 µg/mL (≈ 15.3 µM) | 25 µg/mL (≈ 30.6 µM) | 25 µg/mL (≈ 30.6 µM) | 6.25 µg/mL (≈ 7.65 µM) | 6.25 µg/mL (≈ 7.65 µM) |
| COC1CC(CC2CCC(C)C(C(C)C(=O)O)O2)OC2(OC(C)(C3CCC(C)(C4OC(C5OC(CO)(OC)C(C)CC5C)CC4C)O3)CC2C)C1C (stereo not drawn) [Beispiel 16] | 1,56 µg/ml | 1,56 µg/ml | 0,39 µg/ml | 1,56 µg/ml | 3,13 µg/ml | 0,39 µg/ml |  |  |  |  |  |  |
| COC1CC(CC2CCC(C)C(C(C)C(=O)O)O2)OC2(OC(C)(C3CCC(C)(C4OC(C5OC(O)(COS(C)(=O)=O)C(C)CC5C)CC4C)O3)CC2C)C1C (stereo not drawn) [Beispiel 2] | 0,098 µg/ml | 0,049 µg/ml | 0,004 µg/ml | 0,049 µg/ml | 0,195 µg/ml | 0,013 µg/ml |  |  |  |  |  |  |

Source: patent EP0324390A2, “Nigericin derivatives, method for their preparation, compositions containing them and use of these compositions” (priority 1988, dated 1989)
